Measured values from US8148404B2, “Modulators of CB1 receptors” (7TM Pharma A/S, priority 2006, dated 2012).

Target: T1, human CB1 receptor (Homo sapiens, UniProt P21554)
T1 construct: expressed in transfected cells; membranes used
Assay: Cannabinoid Receptor-1 functional assay: inhibition of CP55940-induced [35S]GTPγS binding to membranes of CHO-K1 cells expressing human CB1
Type: biochemical
Conditions: 3 nM CP55940, [35S]GTPγS SPA, hCB1 membranes; read-out: IC50 value for antagonizing a CB1 receptor agonist
Text: Transfection and Cell Culture—The cDNA encoding the human CB1 (Cannabinoid Receptor-1) receptor (GenBank accession number NM_016083) was cloned from a human adipose tissue cDNA library and cloned into the eukaryotic expression vector pcDNA3.1 (Invitrogen).
Chinese Hamster Ovary cells (CHO-K1) stably expressing recombinant human CB1 were generated by transfecting the plasmid containing the coding sequence of the human CB1 receptor in CHO-K1 cells, using lipofectamin, according to the manufacturer instructions. Resistant clones were selected in the presence of 600 μg/ml G418 (Life technology). Stably transfected CHO-K1 cells were maintained in Ham's F-12 culture medium (Invitrogen), supplemented with 10% fetal calf serum (Invitrogen), 100 U/ml penicillin, 100 μg/ml streptomycin (Life Technology), and 600 μg/ml G418.
Functional activities of the above examples of compounds of the invention were assessed in vitro by measuring their ability to inhibit CP55940-induced [^35S]GTPγS binding to membranes prepared from CHO-K1 cells expressing the human CB1 receptor (described in Transfection and Cell Culture). CP55940 is a well known non-selective CB1 and CB2 receptor agonist (e.g Felder et al., 1995, Molecular Pharmacology, (48) 443-50). Membranes were prepared by a standard procedure. Briefly, cells were harvested using 10 mM EDTA and collected by centrifugation. Pelleted cells were homogenized in ice-cold 20 mM Hepes (pH 7.4), 10 mM EDTA and protease inhibitors (Complete protease inhibitor cocktail tablet, Roche) using an Ultra Turrax Homogenizer. The homogenate was centrifuged at 14 000 rpm for 45 min. at 4° C. The resultant pellet was resuspended in the same buffer but with only 0.1 mM EDTA and was again centrifuged at 14 000 rpm for 45 min. at 4° C. The resulting pellet (membranes) was resuspended in 20 mM Hepes (pH 7.4), 0.1 mM EDTA, 2 mM MgCl2 and protease inhibitors and protein concentration was determined by Micro BCA Protein Assay Reagent Kit (Pierce Biotechnology) according to the manufacturer instructions. The [^35S]GTPγS SPA (Scintillation Proximity Assay) binding assay was performed by incubating 5 μg/well hCB1-membranes with 1 nM [^35S]GTPγS (Perkin Elmer—NEG 030H) in the presence of 3 nM of CP55940 and various concentrations of the test compounds at room temperature for 1 hr in 96-well microtiter plates. 0.4 mg/well SPA beads (PVT-WGA; RPNQ0001 Amersham Pharmacia Biotech) were then added and the incubation continued for further 30 min. on an orbital shaker. The assay buffer contained 50 mM HEPES (pH 7.5), 50 mM NaCl, 2.5 mM MgCl2, 0.1% BSA, 1 μM GDP and 100 μg/ml Saponin. Microtiter plates were centrifuged at 1500 rpm for 5 min. and radioactivity was read immediately using a Topcounter (PerkinElmer Life Sciences). Data were analyzed and IC50 values determined by non-linear regression using the Prism software (GraphPad Software, San Diego).

T1 sequence (P21554 whole entry): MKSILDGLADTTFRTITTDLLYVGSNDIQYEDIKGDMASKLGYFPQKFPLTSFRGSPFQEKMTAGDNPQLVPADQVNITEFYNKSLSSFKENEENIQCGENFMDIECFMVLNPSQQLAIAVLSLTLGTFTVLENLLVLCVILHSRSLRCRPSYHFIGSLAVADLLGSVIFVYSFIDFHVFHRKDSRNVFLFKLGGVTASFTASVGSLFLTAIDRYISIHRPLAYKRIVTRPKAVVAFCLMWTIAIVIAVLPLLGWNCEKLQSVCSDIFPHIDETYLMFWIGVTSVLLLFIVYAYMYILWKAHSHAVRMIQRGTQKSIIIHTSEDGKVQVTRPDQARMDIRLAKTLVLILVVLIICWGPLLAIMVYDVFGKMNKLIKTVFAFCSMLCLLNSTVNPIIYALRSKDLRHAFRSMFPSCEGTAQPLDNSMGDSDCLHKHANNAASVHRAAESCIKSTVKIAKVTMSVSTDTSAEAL

| IC50 [nM] | Structure (SMILES) |
| --- | --- |
| < 300 | CO[C@H]1CN(C(=O)c2nn(-c3ccccc3Cl)c(-c3ccc(Cl)cc3)c2CC(=O)O)CC[C@@H]1c1ccccc1 (relative stereo) [[1.56], {1-(2-Chloro-phenyl)-5-(4-chloro-phenyl)-3-[trans-4-phenyl-3-methoxy-piper-idine-1-carbonyl]-1H-pyrazol-4-yl}-acetic acid] |
| < 300 | O=C(O)Cc1c(C(=O)N2CC=C(c3ccccc3)CC2)nn(-c2ccccc2Cl)c1-c1ccc(Cl)cc1 [Compound [1.1], [1-(2-Chloro-phenyl)-5-(4-chloro-phenyl)-3-(4-phenyl-3,6-dihydro-2H-pyridine-1-carbonyl)-1H-pyrazol-4-yl]-acetic acid] |
| 300 to 3000 | O=C(O)Cc1c(C(=O)N2CCN(c3ccccc3)CC2)nn(-c2ccccc2Cl)c1-c1ccc(Cl)cc1 [Compound [1.2], [1-(2-Chloro-phenyl)-5-(4-chloro-phenyl)-3-(4-phenyl-piperazine-1-carbonyl)-1H-pyrazol-4-yl]-acetic acid] |
| < 300 | O=C(O)COc1c(C(=O)N2CCC(c3ccc(F)cc3)CC2)nn(-c2ccccc2Cl)c1-c1ccc(Cl)cc1 [Compound [1.3], {5-(4-Chloro-phenyl)-1-(2-chloro-phenyl)-3-[4-(4-fluoro-phenyl)-piper-idine-1-carbonyl]-1H-pyrazol-4-yloxy}-acetic acid] |
| 3000 to 10000 | O=C(O)Cc1c(C(=O)N2CCC(O)(c3cccnc3)CC2)nn(-c2ccccc2Cl)c1-c1ccc(Cl)cc1 [Compound [1.8], [1-(2-Chloro-phenyl)-5-(4-chloro-phenyl)-3-(4′-hydroxy-3′,4′,5′,6′-tetrahydro-2′H-[3,4′]bipyridinyl-1′-carbonyl)-1H-pyrazol-4yl]-acetic acid] |
| < 300 | O=C(O)Cc1c(C(=O)N2CCC(c3cccc(F)c3)CC2)nn(-c2ccccc2Cl)c1-c1ccc(Cl)cc1 [Compound [1.13], {1-(2-Chloro-phenyl)-5-(4-chloro-phenyl)-3-[4-(3-fluoro-phenyl)-piper-idine-1-carbonyl]-1H-pyrazol-4-yl}-acetic acid] |
| < 300 | CC(C(=O)O)c1c(C(=O)N2CCC(c3ccccc3F)CC2)nn(-c2ccccc2Cl)c1-c1ccc(Cl)cc1 (stereo not drawn) [Compound [1.52], 2-{1-(2-Chloro-phenyl)-5-(4-chloro-phenyl)-3-[4-(2-fluoro-phenyl)-piperidine-1-carbonyl]-1H-pyrazol-4-yl}-propionic acid] |
| < 300 | O=C(O)C(O)c1c(C(=O)N2CCC(c3ccccc3F)CC2)nn(-c2ccccc2Cl)c1-c1ccc(Cl)cc1 (stereo not drawn) [Compound [1.65], {1-(2-Chloro-phenyl)-5-(4-chloro-phenyl)-3-[4-(2-fluoro-phenyl)-piperidine-1-carbonyl]-1H-pyrazol-4-yl}-2-hydroxy acetic acid] |
| 300 to 3000 | O=C(c1nn(-c2ccccc2Cl)c(-c2ccc(Cl)cc2)c1Cc1nn[nH]n1)N1Cc2ccc(F)cc2C1 [Compound [3.1], [5-(4-Chloro-phenyl)-1-(2-chloro-phenyl)-4-(2H-tetrazol-5-ylmethyl)-1H-pyrazol-3-yl]-(5-fluoro-1,3-dihydro-isoindol-2-yl)-methanone] |
| < 300 | O=C(O)Cc1c(C(=O)N2CCc3ccccc3C2)nn(-c2ccccc2Cl)c1-c1ccc(Cl)cc1 [[1.4], [5-(4-Chloro-phenyl)-1-(2-chloro-phenyl)-3-(3,4-dihydro-1H-isoquinoline-2-carbonyl)-1H-pyrazol-4-yl]-acetic acid] |
| < 300 | O=C(O)Cc1c(C(=O)N2CCC(c3ccc(F)cc3)CC2)nn(-c2ccccc2Cl)c1-c1ccc(Cl)cc1 [[1.5], {5-(4-Chloro-phenyl)-1-(2-chloro-phenyl)-3-[4-(4-fluoro-phenyl)-piperidine-1-carbonyl]-1H-pyrazol-4-yl}-acetic acid] |
| < 300 | O=C(O)Cc1c(C(=O)N2CCC(O)(Cc3ccccc3)CC2)nn(-c2ccccc2Cl)c1-c1ccc(Cl)cc1 [[1.6], [3-(4-Benzyl-4-hydroxy-piperidine-1-carbonyl)-5-(4-chloro-phenyl)-1-(2-chloro-phenyl)-1H-pyrazol-4-yl]-acetic acid] |
| < 300 | O=C(O)Cc1c(C(=O)N2CCC(O)(c3ccc(F)cc3)CC2)nn(-c2ccccc2Cl)c1-c1ccc(Cl)cc1 [[1.7], {1-(2-Chloro-phenyl)-5-(4-chloro-phenyl)-3-[4-(4-fluoro-phenyl)-4-hydroxy-piperidine-1-carbonyl]-1H-pyrazol-4-yl}-acetic acid] |
| 300 to 3000 | O=C(O)Cc1c(C(=O)N2CCC(O)(c3ccccn3)CC2)nn(-c2ccccc2Cl)c1-c1ccc(Cl)cc1 [[1.9], [1-(2-Chloro-phenyl)-5-(4-chloro-phenyl)-3-(4′-hydroxy-3′,4′,5′,6′-tetrahydro-2′H-[2,4′]bipyridinyl-1′-carbonyl)-1H-pyrazol-4yl]-acetic acid] |
| < 300 | O=C(O)Cc1c(C(=O)N2CCC(O)(c3ccc(C(F)(F)F)cc3)CC2)nn(-c2ccccc2Cl)c1-c1ccc(Cl)cc1 [[1.10], {1-(2-Chloro-phenyl)-5-(4-chloro-phenyl)-3-[4-hydroxy-4-(4-trifluoromethyl-phenyl)-piperidine-1-carbonyl]-1H-pyrazol-4-yl}-acetic acid] |
| < 300 | O=C(O)Cc1c(C(=O)N2CCC(O)(c3cccc(C(F)(F)F)c3)CC2)nn(-c2ccccc2Cl)c1-c1ccc(Cl)cc1 [[1.11], {1-(2-Chloro-phenyl)-5-(4-chloro-phenyl)-3-[4-hydroxy-4-(3-trifluoromethyl-phenyl)-piperidine-1-carbonyl]-1H-pyrazol-4-yl}-acetic acid] |
| < 300 | O=C(O)Cc1c(C(=O)N2CCC(O)(c3ccc(Cl)cc3)CC2)nn(-c2ccccc2Cl)c1-c1ccc(Cl)cc1 [[1.12], {1-(2-Chloro-phenyl)-5-(4-chloro-phenyl)-3-[4-(4-chloro-phenyl)-4-hydroxy-piperidine-1carbonyl]-1H-pyrazol-4-yl}-acetic acid] |
| < 300 | O=C(O)Cc1c(C(=O)N2CCC(O)(c3ccccc3)CC2)nn(-c2ccccc2Cl)c1-c1ccc(Cl)cc1 [[1.14], [1-(2-Chloro-phenyl)-5-(4-chloro-phenyl)-3-(4-hydroxy-4-phenyl-piperidine-1-carbonyl)-1H-pyrazol-4-yl]-acetic acid] |
| < 300 | O=C(O)Cc1c(C(=O)N2CCC(c3ccc(F)cc3)C2)nn(-c2ccccc2Cl)c1-c1ccc(Cl)cc1 (stereo not drawn) [[1.15], {1-(2-Chloro-phenyl)-5-(4-chloro-phenyl)-3-[3-(4-fluoro-phenyl)-pyrrol-idine-1-carbonyl]-1H-pyrazol-4-yl}-acetic acid] |
| 300 to 3000 | O=C(O)Cc1c(C(=O)N2CCN(c3ncccn3)CC2)nn(-c2ccccc2Cl)c1-c1ccc(Cl)cc1 [[1.16], [5-(4-Chloro-phenyl)-1-(2-chloro-phenyl)-3-(4-pyrimidin-2-yl-piperazine-1-carbonyl)-1H-pyrazol-4-yl]-acetic acid] |
| < 300 | COC1(c2ccc(F)cc2)CCN(C(=O)c2nn(-c3ccccc3Cl)c(-c3ccc(Cl)cc3)c2CC(=O)O)CC1 [[1.17], {5-(4-Chloro-phenyl)-1-(2-chloro-phenyl)-3-[4-(4-fluoro-phenyl)-4-methoxy-piperidine-1carbonyl]-1H-pyrazol-4-yl}-acetic acid] |
| 300 to 3000 | Cc1noc(C2CCN(C(=O)c3nn(-c4ccccc4Cl)c(-c4ccc(Cl)cc4)c3CC(=O)O)CC2)n1 [[1.20], {1-(2-Chloro-phenyl)-5-(4-chloro-phenyl)-3-[4-(3-methyl-[1,2,4]oxadiazol-5-yl)-piperidine-1-carbonyl]-1H-pyrazol-4-yl}-acetic acid] |
| < 300 | O=C(O)Cc1c(C(=O)N2CCC(O)(c3ccccc3F)CC2)nn(-c2ccccc2Cl)c1-c1ccc(Cl)cc1 [[1.21], {1-(2-Chloro-phenyl)-5-(4-chloro-phenyl)-3-[4-(2-fluoro-phenyl)-4-hydroxy-piperidine-1carbonyl]-1H-pyrazol-4-yl}-acetic acid] |
| 300 to 3000 | Cc1ccc(C2(O)CCN(C(=O)c3nn(-c4ccccc4Cl)c(-c4ccc(Cl)cc4)c3CC(=O)O)CC2)nc1 [[1.22], [5-(4-Chloro-phenyl)-1-(2-chloro-phenyl)-3-(4′-hydroxy-5-methyl-3′,4′,5′,6′-tetrahydro-2′H-[2,4′]bipyridinyl-1′-carbonyl)-1H-pyrazol-4-yl]-acetic acid] |
